The series can be described thus: solubility measurement in purified water and ethanol. The following applies: for solubility: ethanol (25° C.); for density up to which dissolved: 25° C.

From patent US8022090B2, “Vitamin C composition stabilized with cationic material, anionic material and caffeic acid derivative” (The Faceshop Korea Co., Ltd, priority 2007, dated 2011) come the findings set out here.

For the compound `O=C(O)/C=C/c1ccc(O)c(O)c1` [caffeic acid], the solubility result is “dissolved” (density 1 mg/mL) and “dissolved” (density 10 mg/mL). Besides, the “density up to which dissolved” value was at least 10 mg/mL (ethanol) and “not dissolved” (purified water).
